Data published in patent US10357500B2, “Neuro-protective agents and uses thereof” (Guangzhou Cellprotek Pharmaceutical Co., Ltd., priority 2014, dated 2019).
Entries after “also recorded” stand apart in the source; their conditions may differ.

Legend:
Assay type in all cases: in vivo
[1] = tested on: Macaca fascicularis in acute hypobaric hypoxia; experiment: Cerebral water content of left hemisphere, acute hypobaric hypoxia model; conditions: for Cerebral Water Content (%): left hemisphere, 48 hours at simulated 7,500 meters, 10 mg/kg i.v. and 30 mg/kg i.m., repeated after 24 hours; for increase of cerebral water content (in words): acute hypobaric hypoxia, simulated 7,500 meters, vs solvent control
From the text: (§1) 17 healthy male Macaca fascicularis, 6 to 6.5 years-old, weighted 6.8-7.5 kg, were used. The use of laboratory animals is approved by Committee of laboratory animal management and use and experimental animal ethics committee. The experiment scheme complies with rules concerning animal protection, animal welfare and ethical principles. The 17 Macaca fascicularis were grouped randomly into 3 groups (Table 1).
(§2) The low pressure chamber group is a platform used to simulate low temperature and low pressure plateau environment. The system can be manipulated to simulate a low pressure environment having any altitude below 10000 meters and any temperature above −30° C. The ascending velocity: 3 m/second (0 to 6000 m); descending velocity: 2 m/second (6000 m to 7500 m); constant temperature: 22° C.; average air flow velocity: 150 m^3/h.
(§3) (1) An altitude of 7,500 meters was simulated by manipulation of the low-pressure chamber to cause acute hypoxia in Macaca fascicularis.
(§4) The Macaca fascicularis raised in the laboratory animal housing were labeled and transferred to the low-pressure chamber. The Macaca fascicularis was fed for 1 more day in the chamber in order to make them adapt to the experimental environment. The pressure in the low-pressure chamber was adjusted to simulate altitudes of 3,000, 4,500, and 6,000 meters, staying at each altitude for 30 minutes, followed by simulation of an altitude of […] for 24 hours. The animals were then treated with drugs individually at pre-determined doses. After treatment at 7,500 meters for 48 hours, the altitude was decreased to 6,000 meters at a velocity of 3 m/s. The animals were subject to ketamine anesthesia, sacrificed, dissected and subject to sampling. The samples were fixed. Animals grouped in plain controls were raised in an animal housing at an altitude of 350 m before assessment and sacrifice.
(§5) (2) The animals in 5α-androstane-3β,5,6β-triol treatment group were administered through intravenous injection 10 mL of 5α-androstane-3β,5,6β-triol solution in glucose saline at a dosage of 10 mg/kg before simulation, after 30 min at 3,000 meters, and after 30 min at 4,500 meters, respectively. The animals in solvent control group were given 10 mL of glucose saline through intravenous injection.
(§6) (3) The animals in 5α-androstane-3β,5,6β-triol treatment group were administered by skeletal muscle injection at 5 different points with 5α-androstane-3β,5,6β-triol sustained-release formulation at a dosage of 30 mg/kg after 30 min at 6,000 meters. Acute plateau hypoxia models were administered 10 mL of glucose saline through intravenous injection.
(4) The animals in 5α-androstane-3β,5,6β-triol treatment group were administered through intravenous injection 10 mL of 5α-androstane-3β,5,6β-triol injection in glucose saline at a dosage of 10 mg/kg after 24 hours at 7,500 meters, and further by skeletal muscle injection at 5 different points with 5α-androstane-3β,5,6β-triol sustained-release formulation at a dosage of 30 mg/kg. […]
Cerebral water content was measured according to a reported method (Patir H, Sarada S K, Singh S, Mathew T, Singh B, Bansal A. Quercetin as a prophylactic measure against high altitude cerebral edema. Free Radic Biol Med 2012 Aug. 15; 53(4):659-68). […] Brains of the animals were rapidly taken out and the wet weights of the left hemispheres were measured. The left hemispheres were then placed in a drying oven at 60° C., and were measured their weights daily at a fixed time until no weight change was observed. […]

[2] = tested on: Macaca fascicularis in acute hypobaric hypoxia; experiment: Transmission electron microscopy of the cortical tissue of the frontal lobe (vasogenic edema); conditions: frontal lobe cortex, transmission electron microscope, vs solvent control
From the text: as §1, §2, §3, §4, §5, §6
(4) The animals in 5α-androstane-3β,5,6β-triol treatment group were administered through intravenous injection 10 mL of 5α-androstane-3β,5,6β-triol injection in glucose saline at a dosage of 10 mg/kg after 24 hours at 7,500 meters, and further by skeletal muscle injection at 5 different points with 5α-androstane-3β,5,6β-triol sustained-release formulation at a dosage of 30 mg/kg. Acute plateau hypoxia models were administered 10 mL of glucose saline through intravenous injection.
The cortical tissues of the frontal lobes of the animals were taken out and cut to provide brain pieces of 1 mm^3, which were fixed in a stationary liquid of 2.5% glutaraldehyde to prepare ultrathin sections. The morphology of neurons and the structure of blood vessels were observed by transmission electron microscopy.

[3] = tested on: Macaca fascicularis in acute hypobaric hypoxia; experiment: Neurological score, acute hypobaric hypoxia model (simulated 7,500 m); conditions: for neurological function / neurological score (in words): acute hypobaric hypoxia, simulated 7,500 meters, vs solvent control
From the text: as §1, §2, §3, §4, §5
(3) The animals in 5α-androstane-3β,5,6β-triol treatment group were administered by skeletal muscle injection at 5 different points with 5α-androstane-3β,5,6β-triol sustained-release formulation at a dosage of 30 mg/kg after 30 min at 6,000 meters. Acute plateau hypoxia models were administered 10 mL of glucose saline through intravenous injection. […]
Animals were stayed at simulated altitude of 7,500 meters for 24 hours before descending to 6,000 meters at a speed of 3 m/s. The neurological scores were evaluated and recorded according to a reported method (Zhu et al, An improved method of neurological score for non-human primates, Chinese Journal of Comparative Medicine, 2011, 21 (9): 58-62). The neurological score was evaluated and recorded by two trained observers who were neither aware of the grouping nor involved in the drug administering. […]
The results were indicated as mean±standard deviation, and statistically analyzed by software SigmaPlot. […]

[4] = tested on: Macaca fascicularis in acute hypobaric hypoxia; experiment: HE staining of the cortical tissue of the frontal lobe (neuronal vacuolar degeneration); conditions: frontal lobe cortex, vs solvent control
From the text: as §1, §2, §3
The Macaca fascicularis raised in the laboratory animal housing were labeled and transferred to the low-pressure chamber. The Macaca fascicularis was fed for 1 more day in the chamber in order to make them adapt to the experimental environment. […] The animals were then treated with drugs individually at pre-determined doses. […]

Structure (SMILES)	Cerebral Water Content (%) ([1]; plain control 76.155, solvent control 76.714)	Cerebral Water Content (%) ([1]; plain control 76.155, solvent control 76.714, listed as 5α-androstane-3β3,5,6β-triol)	vasogenic edema / Virchow-Robin space of cortical capillary vessels (in words) [2]	neurological score ([3]; 24 hours at simulated 7,500 meters, 10 mg/kg i.v. x3 and 30 mg/kg i.m. sustained-release, solvent control 31.6±4.2, mean±SD)	neurological function / neurological score (in words) [3]	neuronal vacuolar degeneration (in words) [4]	increase of cerebral water content (in words) [1]
C[C@@]12CCC[C@H]1[C@@H]1C[C@@H](O)[C@@]3(O)C[C@@H](O)CC[C@]3(C)[C@H]1CC2 [5α-androstane-3β,5,6β-triol]	76.283 ± 0.235 %	76.283%	reduced; also recorded: no significant vasogenic edema occurred	20.5±5.7	significantly improved	reduced neuronal vacuolar degeneration	
CC(C)CCC[C@@H](C)[C@H]1CC[C@H]2[C@@H]3C[C@@H](O)[C@@]4(O)C[C@@H](O)CC[C@]4(C)[C@H]3CC[C@]12C [Compound I, cholestane-3β,5α,6β-triol]			effectively reduce			effectively reduce	
CCC=C1CC[C@H]2[C@@H]3C[C@@H](O)[C@@]4(O)C[C@@H](O)CC[C@]4(C)[C@H]3CC[C@]12C [Compound II, 17-propylidene-androstane-3β,5α,6β-triol]			no significant angioedema		effectively protected		inhibited increase of the cerebral water content
CC(C)C1CC[C@H]2[C@@H]3C[C@@H](O)[C@@]4(O)C[C@@H](O)CC[C@]4(C)[C@H]3CC[C@]12C (stereo partly drawn) [Compound III, 17-isopropyl-androstane-3β,5α,6β-triol]			no significant angioedema		effectively protected		inhibited increase of the cerebral water content
CCCCC1CC[C@H]2[C@@H]3C[C@@H](O)[C@@]4(O)C[C@@H](O)CC[C@]4(C)[C@H]3CC[C@]12C (stereo partly drawn) [Compound IV, 17-butyl-androstane-3β,5α,6β-triol]			no significant angioedema		effectively protected		inhibited increase of the cerebral water content
